The assay relates to PLB-985 cells. The experiment in a line: ROS production (isoluminol/HRP luminescence) in PLB-985 cells, Biological Example 1. Format: cell-based. Particulars: 25 μM compound vs. DMSO. The protocol:
To cells (HL-60 or PLB-985) in HBSS medium was added compound (25 or 50 μM), isoluminol and Horse Radish Peroxidase, fraction II. Luminescence was measured for 10-30 minutes and the area under the […] curve was divided by that from a control experiment to give the activity expressed as fold change.
Each assay indicated below was performed at a different site, at a different time, by different personnel and/or using different cell lines, concentrations and controls. The cell line, concentration of example compound and control used in respect of each assay were as indicated below. The values obtained from these different setups (each using an otherwise identical assay) are given as Activity A, B, C, D or E in Table 5 below. The values are expressed as fold increase of NADPH activity in the presence of the relevant of compound (as indicated below) compared to the relevant control (as indicated below).
Activity A: HL-60 cells; 50 μM compound vs. blank Activity B: PLB-985 cells; 25 μM compound vs. blank Activity C, D and E: PLB-985 cells; 25 μM compound vs. DMSO

The mark [1] stands for this setting: setup E, read-out: Activity E (fold increase of NADPH activity compared to control).
Setting [2] is: setup D, read-out: Activity D (fold increase of NADPH activity compared to control).
Where [3] appears, read: setup C, read-out: Activity C (fold increase of NADPH activity compared to control).

The values that follow come from patent publication US20140018384A1, “QUINOLINONE DERIVATIVES FOR USE IN THE TREATMENT OF AN AUTOIMMUNE DISEASE AND/OR AN INFLAMMATORY DISEASE” (PRONOXIS AB, priority 2011, published 2014).

Read-outs that look alike come from different tables or passages of the source.

In the case of `Cc1ccc(NC(=O)Cn2cc(C(=O)c3ccc4ccccc4c3)c(=O)c3cc4c(cc32)OCO4)cc1` [Example 2, 2-[6,7-Methylenedioxy-3-(2-naphthoyl)-4-oxo-1-quinolinyl]-N-p-tolylacetamide], the fold induction at 25 µM under setting [1] stood at 10.

On to `COc1cccc(NC(=O)Cn2cc(C(=O)c3ccc4ccccc4c3)c(=O)c3cc4c(cc32)OCO4)c1` [Example 3, N-m-Anisyl-2-[6,7-methylenedioxy-3-(2-naphthoyl)-4-oxo-1-quinolinyl]acetamide], for which, under setting [1], the fold induction at 25 µM came out at 1.8.

`O=C(Cn1cc(C(=O)c2ccc3ccccc3c2)c(=O)c2cc3c(cc21)OCO3)Nc1cccc(Cl)c1` [Example 4, N-(3-chlorophenyl)-2-[6,7-methylenedioxy-3-(2-naphthoyl)-4-oxo-1-quinolinyl]acetamide]: under setting [1], the fold induction at 25 µM amounted to 3.4.

As for `O=C(Cn1cc(C(=O)c2ccc3ccccc3c2)c(=O)c2cc3c(cc21)OCO3)Nc1ccc(OC(F)(F)F)cc1` [Example 5, 2-[6,7-Methylenedioxy-3-(2-naphthoyl)-4-oxo-1-quinolinyl]-N-(4-trifluoromethoxyphenyl)acetamide], the fold induction at 25 µM under setting [1] is 4.3.

Take `O=C(Cn1cc(C(=O)c2ccc3ccccc3c2)c(=O)c2cc3c(cc21)OCO3)Nc1ccc(Cl)cc1Cl` [Example 6, N-(2,4-DichlorophenyI)-2-[6,7-methylenedioxy-3-(2-naphthoyl)-4-oxo-1-quinolinyl]acetamide]: under setting [1], the fold induction at 25 µM is 1.7.

As to `O=C(Cn1cc(C(=O)c2ccc3ccccc3c2)c(=O)c2cc3c(cc21)OCO3)Nc1ccc(Cl)c(Cl)c1` [Example 7, N-(3,4-Dichlorophenyl)-2-[6,7-methylenedioxy-3-(2-naphthoyl)-4-oxo-1-quinolinyl]acetamide], the fold induction at 25 µM under setting [1] worked out at 2.2.

Consider `O=C(Cn1cc(C(=O)c2ccc3ccccc3c2)c(=O)c2cc3c(cc21)OCO3)Nc1cccc(OC(F)(F)F)c1` [Example 8, 2-[6,7-Methylenedioxy-3-(2-naphthoyI)-4-oxo-1-quinolinyl]-N-(3-trifluoromethoxyphenyl)acetamide], for which the fold induction at 25 µM under setting [1] came out at 1.3.

As to `CCCc1ccc(NC(=O)Cn2cc(C(=O)c3ccc4ccccc4c3)c(=O)c3cc4c(cc32)OCO4)cc1` [Example 9, 2-[6,7-Methylenedioxy-3-(2-naphthoyl)-4-oxo-1-quinolinyl]-N-(4-propylphenyl)acetamide], under setting [1], the fold induction at 25 µM was found to be 2.

For the compound `O=C(Cn1cc(C(=O)c2ccc3ccccc3c2)c(=O)c2cc3c(cc21)OCO3)Nc1ccccc1Cl` [Example 10, N-(2-ChlorophenyI)-2-[6,7-methylenedioxy-3-(2-naphthoyl)-4-oxo-1-quinolinyl]acetamide], under setting [1], the fold induction at 25 µM was found to be 1.7.

For `O=C(Cn1cc(C(=O)c2ccc3ccccc3c2)c(=O)c2cc3c(cc21)OCO3)Nc1ccc(C(F)(F)F)cc1` [Example 11, 2-[6,7-Methylenedioxy-3-(2-naphthoyl)-4-oxo-1-quinolinyl]-N-(4-trifluoromethylphenyl)acetamide], under setting [1], the fold induction at 25 µM turned out to be 8.8.

On to `O=C(Cn1cc(C(=O)c2ccc3ccccc3c2)c(=O)c2cc3c(cc21)OCO3)Nc1cccnc1` [Example 12, 2-[6,7-Methylenedioxy-3-(2-naphthoyl)-4-oxo-1-quinolinyl]-N-(3-pyridyl)acetamide], for which the fold induction at 25 µM under setting [1] was found to be 3.2.

For the compound `CN(C(=O)Cn1cc(C(=O)c2ccc3ccccc3c2)c(=O)c2cc3c(cc21)OCO3)c1ccc(Cl)cc1` [Example 15, N-(4-Chlorophenyl)-N-methyl-2-[6,7-methylenedioxy-3-(2-naphthoyl)-4-oxo-1-quinolinyl]acetamide], the fold induction at 25 µM under setting [1] was determined as 4.3.

In the case of `COc1ccc2c(c1)c(=O)c(C(=O)c1ccc3ccccc3c1)cn2CC(=O)Nc1ccc(Cl)cc1` [Example 16, N-(4-Chlorophenyl)-2-[6-methoxy-3-(2-naphthoyl)-4-oxo-1-quinolinyl]acetamide], the fold induction at 25 µM reads like this: under setting [2], 35.4; under setting [1], 5.9.

With `COc1cc2c(=O)c(C(=O)c3ccc4ccccc4c3)cn(CC(=O)Nc3ccc(Cl)cc3)c2cc1OC` [Example 17, N-(4-Chlorophenyl)-2-[6,7-dimethoxy-3-(2-naphthoyl)-4-oxo-1-quinolinyl]acetamide], the fold induction at 25 µM under setting [2] was found to be 16.3.

For the compound `COc1ccc2c(=O)c(C(=O)c3ccc4ccccc4c3)cn(CC(=O)Nc3ccc(Cl)cc3)c2c1` [Example 18, N-(4-Chlorophenyl)-2-[7-methoxy-3-(2-naphthoyl)-4-oxo-1-quinolinyl]acetamide], under setting [2], the fold induction at 25 µM turned out to be 12.6.

As for `COc1cc2c(=O)c(C(=O)c3ccc4ccccc4c3)cn(CC(=O)Nc3ccc(Cl)cc3)c2cc1C` [Example 19, N-(4-Chlorophenyl)-2-[6-methoxy-7-methyl-3-(2-naphthoyl)-4-oxo-1-quinolinyl]acetamide], the fold induction at 25 µM under setting [2] came to 10.9.

For the compound `COc1cc2c(cc1C)c(=O)c(C(=O)c1ccc3ccccc3c1)cn2CC(=O)Nc1ccc(Cl)cc1` [Example 20, N-(4-Chlorophenyl)-2-[7-methoxy-6-methyl-3-(2-naphthoyl)-4-oxo-1-quinolinyl]acetamide], the fold induction at 25 µM under setting [2] stood at 6.3.

Turning to `COc1ccc2c(n1)c(=O)c(C(=O)c1ccc3ccccc3c1)cn2CC(=O)Nc1ccc(Cl)cc1` [Example 21, N-(4-Chlorophenyl)-2-[6-methoxy-3-(2-naphthoyl)-4-oxo-(1,5-naphthyridin-1-yl)]acetamide], the fold induction at 25 µM under setting [2] was 68.7 and the fold induction at 25 µM under setting [1] was 9.2.

As for `O=C(Cn1cc(C(=O)c2ccc3ccccc3c2)c(=O)c2nc(O)ccc21)Nc1ccc(Cl)cc1` [Example 22, N-(4-Chlorophenyl)-2-[6-hydroxy-3-(2-naphthoyl)-4-oxo-(1,5-naphthyridin-1-yl)]-acetamide], the fold induction at 25 µM under setting [1] is 20.2.

For `COc1cc2c(cn1)c(=O)c(C(=O)c1ccc3ccccc3c1)cn2CC(=O)Nc1ccc(Cl)cc1` [Example 23, N-(4-Chlorophenyl)-2-[7-methoxy-3-(2-naphthoyl)-4-oxo-(1,6-naphthyridin-1-yl)]-acetamide], the fold induction at 25 µM under setting [1] stood at 2.1.

Turning to `COc1cc2c(=O)c(C(=O)c3ccc4ccccc4c3)cn(CC(=O)Nc3ccc(Cl)cc3)c2cn1` [Example 24, N-(4-Chlorophenyl)-2-[6-methoxy-3-(2-naphthoyl)-4-oxo-(1,7-naphthyridin-1-yl)]-acetamide], under setting [1], the fold induction at 25 µM came to 1.7.

For the compound `COc1cccc2c1c(=O)c(C(=O)c1ccc(F)cc1)cn2CC(=O)Nc1ccc(Cl)cc1` [Example 25], the fold induction at 25 µM under setting [1] amounted to 34.6.

Consider `COc1ccc(NC(=O)Cn2cc(C(=O)c3ccco3)c(=O)c3cc4c(cc32)OCO4)cc1` [Example 26, N-p-Anisyl-2-[3-(2-furoyl)-6,7-methylenedioxy-4-oxo-1-quinolinyl]acetamide], for which the fold induction at 25 µM under setting [3] stood at 14.9.

Regarding `O=C(Cn1cc(C(=O)c2ccc3ccccc3c2)c(=O)c2cc3c(cc21)OCO3)Nc1ccc(Cl)cn1` [Example 28, N-(5-Chloro-2-pyridyl)-2-[6,7-methylenedioxy-3-(2-naphthoyl)-4-oxo-1-quinolinyl]-acetamide], the fold induction at 25 µM under setting [3] was determined as 16.1.

Regarding `COc1ccc(C(=O)c2cn(CC(=O)Nc3ccc(Cl)cc3)c3cc4c(cc3c2=O)OCO4)cc1` [Example 29, 2-[3-p-Anisoyl-6,7-methylenedioxy-4-oxo-1-quinolinyl]-N-(4-chlorophenyl)acetamide], the fold induction at 25 µM under setting [3] was 55.

Turning to `COc1ccc(NC(=O)Cn2cc(C(=O)c3ccc(C)c(C)c3)c(=O)c3cc4c(cc32)OCO4)c(OC)c1` [Example 30, N-(2,4-Dimethoxyphenyl)-2-[3-(3,4-dimethylbenzoyl)-6,7-methylenedioxy-4-oxo-1-quinolinyl]acetamide], the fold induction at 25 µM was 28.2 under setting [3] and 4.1 under setting [1].

Turning to `COc1ccc(NC(=O)Cn2cc(C(=O)c3ccc(F)cc3)c(=O)c3cc4c(cc32)OCO4)cc1OC` [Example 31, N-(3,4-Dimethoxyphenyl)-2-[3-(4-fluorobenzoyl)-6,7-methylenedioxy-4-oxo-1-quinolinyl]acetamide], under setting [3], the fold induction at 25 µM worked out at 49.5.

Turning to `O=C(Cn1cc(C(=O)c2cccc(F)c2)c(=O)c2cc3c(cc21)OCO3)Nc1ccc(Cl)cc1` [Example 32, N-(4-Chlorophenyl)-2-[3-(3-fluorobenzoyl)-6,7-methylenedioxy-4-oxo-1-quinolinyl]acetamide], under setting [3], the fold induction at 25 µM came to 47.8.

As to `O=C(Cn1cc(C(=O)c2ccc(F)cc2)c(=O)c2cc3c(cc21)OCO3)Nc1ccc(Cl)cn1` [Example 33, N-(5-Chloro-2-pyridyl)-2-[3-(4-fluorobenzoyl)-6,7-methylenedioxy-4-oxo-1-quinolinyl]acetamide], the fold induction at 25 µM under setting [3] was 45.6.

Regarding `O=C(Cn1cc(C(=O)c2cccnc2)c(=O)c2cc3c(cc21)OCO3)Nc1ccc(Cl)cn1` [Example 34, N-(5-Chloro-2-pyridyl)-2-(6,7-methylenedioxy-3-nicotinoyl-4-oxo-1-quinolinyl)acetamide], the fold induction at 25 µM under setting [3] was 27.5.

As to `Cc1ccc(C(=O)c2cn(CC(=O)Nc3ccc(N(C)C)cc3)c3cc4c(cc3c2=O)OCO4)cc1C` [Example 35], under setting [3], the fold induction at 25 µM amounted to 6.3.

`O=C(Cn1cc(C(=O)c2ccc(Cl)cc2)c(=O)c2cc3c(cc21)OCO3)Nc1ccc(Cl)cn1` [Example 36, 2-[3-(4-Chlorobenzoyl)-6,7-methylenedioxy-4-oxo-1-quinolinyl]-N-(5-chloro-2-pyridyl)acetamide]: the fold induction at 25 µM under setting [3] stood at 46.4.
